According to patent publication US20180186755A1, “LYSYL OXIDASE-LIKE 2 INHIBITORS AND USES THEREOF” (PharmAkea, Inc., priority 2015, published 2018):
Counter-ions that a name gives are not always drawn.

These compounds were tested against T1, human LOXL2 (Homo sapiens, UniProt Q9Y4K0) (assay: Human LOXL2 amine oxidase activity assay (Amplex Red fluorescence)). Settings: concentrated conditioned media from CHO cells stably expressing human LOXL2; 2 h at 37° C. preincubation; DAP substrate.
T1 construct: expressed in transfected cells; 10-20x concentrated conditioned media used as the enzyme source
T1 sequence (Q9Y4K0 26-774): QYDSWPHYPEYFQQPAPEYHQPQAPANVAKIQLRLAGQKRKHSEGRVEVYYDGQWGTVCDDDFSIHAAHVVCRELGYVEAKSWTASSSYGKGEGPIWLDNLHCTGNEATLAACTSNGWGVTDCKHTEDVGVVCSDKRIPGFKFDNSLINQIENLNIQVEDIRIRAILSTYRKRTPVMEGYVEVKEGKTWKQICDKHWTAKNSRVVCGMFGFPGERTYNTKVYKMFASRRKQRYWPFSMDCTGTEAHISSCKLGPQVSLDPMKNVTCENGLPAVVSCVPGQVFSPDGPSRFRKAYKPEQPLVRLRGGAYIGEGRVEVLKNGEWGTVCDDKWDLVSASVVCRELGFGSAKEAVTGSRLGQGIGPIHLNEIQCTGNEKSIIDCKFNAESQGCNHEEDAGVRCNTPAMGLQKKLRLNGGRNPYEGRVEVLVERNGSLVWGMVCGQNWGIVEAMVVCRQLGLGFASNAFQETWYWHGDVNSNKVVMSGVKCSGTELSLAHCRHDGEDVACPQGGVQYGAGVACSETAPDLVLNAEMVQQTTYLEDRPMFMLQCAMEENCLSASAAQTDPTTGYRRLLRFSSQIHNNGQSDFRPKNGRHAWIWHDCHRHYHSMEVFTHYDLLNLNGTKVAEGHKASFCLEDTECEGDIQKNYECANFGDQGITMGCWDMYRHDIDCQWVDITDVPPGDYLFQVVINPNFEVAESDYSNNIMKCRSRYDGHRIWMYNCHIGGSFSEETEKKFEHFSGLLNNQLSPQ
Assay type: biochemical
Protocol: Example B-1: Human LOXL2 Amine Oxidase Activity Assay
LOXL2 amine oxidase activity is evaluated by measuring Amplex Red fluorescence using 10-20× concentrated conditioned media from CHO cells stably expressing human LOXL2.
To assay for amine oxidase activity, 10 μL of the concentrated conditioned media is incubated with 2 μL of test compound in DMSO and 73 μL Assay Buffer (50 mM Borate Buffer, pH8) for 2 h at 37° C. After the 2 h incubation, 5 ul of 10 mM 1,5-Diaminopentane (DAP) diluted in Assay Buffer and 10 μl of Amplex Red Mix (8.5 μl Assay Buffer+0.5 μl of 10 mM Amplex Red+1 μl of 500 U/ml Horseradish Peroxidase) are added and the plate mixed and immediately placed on the FlexStaion for fluorescence measurements. Fluorescence is read in kinetic mode every 2 min for 1 hour at excitation=544 and emission=590. The amine oxidase activity is calculated from the slope of the linear portion of the curve.

Row | Compound | IC50
1 | COC(=O)c1cccc(Cn2ccc3c(Oc4cc(CN)ncn4)cccc32)c1 [Compound 1-27, Methyl 3-((4-((6-(aminomethyl)pyrimidin-4-yl)oxy)-1H-indol-1-yl)methyl)benzoate] | < 100 nM
2 | NCc1cc(Oc2cccc(C(=O)NCCC(=O)O)c2)ncn1 [Compound 1-7, 3-(3-((6-(Aminomethyl)pyrimidin-4-yl)oxy)benzamido)propanoic Acid Hydrochloride] | 100 to 1000 nM
3 | NCc1cc(Oc2cccc(C(=O)NCc3cccnc3)c2)ncn1 [Compound 1-54, 3-((6-(Aminomethyl)pyrimidin-4-yl)oxy)-N-(pyridin-3-ylmethyl)benzamide] | < 100 nM
4 | CCn1ccc2c(Oc3cc(CN)ncn3)cccc21 [Compound 1-20, (6-((1-Ethyl-1H-indol-4-yl)oxy)pyrimidin-4-yl)methanamine] | < 100 nM
5 | NCc1cc(Oc2cccc(C(=O)NCc3ccc(-c4ccc(F)cc4)cc3)c2)ncn1 [Compound 1-62, 3-((6-(Aminomethyl)pyrimidin-4-yl)oxy)-N-((4′-fluoro-[1,1′-biphenyl]-4-yl)methyl)benzamide] | < 100 nM
6 | CC(C)(O)CNC(=O)c1cccc(COc2cc(CN)ncn2)c1 [Compound 1-34, 3-(((6-(Aminomethyl)pyrimidin-4-yl)oxy)methyl)-N-(2-hydroxy-2-methylpropyl)benzamide] | < 100 nM
7 | NCc1cc(Oc2cccc(C(=O)N3CCc4ccncc43)c2)ncn1 [Compound 1-52, (3-((6-(Aminomethyl)pyrimidin-4-yl)oxy)phenyl)(2,3-dihydro-H-pyrrolo[2,3-c]pyridin-1-yl)methanone, hydrochloride] | < 100 nM
8 | NCc1cc(OCc2cccc(C(=O)N3CCCC(O)(C(F)(F)F)C3)c2)ncn1 (racemic) [Compound 1-35, Racemic-(3-(((6-(aminomethyl)pyrimidin-4-yl)oxy)methyl)phenyl)(3-hydroxy-3-(trifluoromethyl)piperidin-1-yl)methanone] | < 100 nM
9 | NCc1cc(Oc2cccc3[nH]ncc23)ncn1 [Compound 1-60, (6-((1H-Indazol-4-yl)oxy)pyrimidin-4-yl)methanamine] | < 100 nM
10 | NCc1cc(Oc2cccc(C(=O)NCCS(N)(=O)=O)c2)ncn1 [Compound 1-13, 3-((6-(Aminomethyl)pyrimidin-4-yl)oxy)-N-(2-sulfamoylethyl)benzamide hydrochloride] | < 100 nM
11 | NCc1cc(Oc2cccc3c2ccn3CC(=O)N2CCCCC2)ncn1 [Compound 1-23, 2-(4-((6-(Aminomethyl)pyrimidin-4-yl)oxy)-1H-indol-1-yl)-1-(piperidin-1-yl)ethan-1-one] | 100 to 1000 nM
12 | NCc1cc(Oc2cccc(C(=O)N[C@@H](CO)c3ccccc3)c2)ncn1 [Compound 1-57, (R)-3-((6-(Aminomethyl)pyrimidin-4-yl)oxy)-N-(2-hydroxy-1-phenylethyl)benzamide] | < 100 nM
13 | CN(C(=O)Cn1ccc2c(Oc3cc(CN)ncn3)cccc21)c1ccccc1 [Compound 1-24, 2-(4-((6-(Aminomethyl)pyrimidin-4-yl)oxy)-1H-indol-1-yl)-N-methyl-N-phenylacetamide] | < 100 nM
14 | NCc1cc(Oc2cccc(C(=O)N3CC[C@H](O)C3)c2)ncn1 [Compound 1-10, (S)-(3-((6-(Aminomethyl)pyrimidin-4-yl)oxy)phenyl)(3-hydroxypyrrolidin-1-yl)methanone hydrochloride] | < 100 nM
15 | NCc1cc(NCc2cccc(C(=O)Nc3ccc(C(=O)O)cc3)c2)ncn1 [Compound 1-44, 4-(3-(((6-(Aminomethyl)pyrimidin-4-yl)amino)methyl)benzamido)benzoic acid] | 100 to 1000 nM
16 | CS(=O)(=O)CCNC(=O)c1cccc(Oc2cc(CN)ncn2)c1 [Compound 1-12, 3-((6-(Aminomethyl)pyrimidin-4-yl)oxy)-N-(2-(methylsulfonyl)ethyl)benzamide hydrochloride] | < 100 nM
17 | NCc1cc(OCc2cccc(C(=O)NCCn3cccn3)c2)ncn1 [Compound 1-39, N-(2-(1H-Pyrazol-1-yl)ethyl)-3-(((6-(aminomethyl)pyrimidin-4-yl)oxy)methyl)benzamide] | < 100 nM
18 | COc1ccc(CN2C(=O)CCc3c(Oc4cc(CN)ncn4)cccc32)cn1 [Compound 1-16, 5-((6-(Aminomethyl)pyrimidin-4-yl)oxy)-1-((6-methoxypyridin-3-yl)methyl)-3,4-dihydroquinolin-2(1H)-one acetate] | < 100 nM

The next lines start with the values.

Row | IC50 | Compound
19 | < 100 nM | NCc1cc(OCc2cccc(C(=O)NCc3cccnc3)c2)ncn1 [Compound 1-79, 3-(((6-(Aminomethyl)pyrimidin-4-yl)oxy)methyl)-N-(pyridin-3-ylmethyl)benzamide]
20 | 100 to 1000 nM | NCc1cc(N2CCN(C(=O)Nc3ccccc3)CC2)ncn1 [Compound 1-105, 4-(6-(Aminomethyl)pyrimidin-4-yl)-N-phenylpiperazine-1-carboxamide]
21 | < 100 nM | NCc1cc(NCc2cccc(C(=O)Nc3cccc(C(F)(F)F)c3)c2)ncn1 [Compound 1-96, 3-(((6-(Aminomethyl)pyrimidin-4-yl)amino)methyl)-N-(3-(trifluoromethyl)phenyl)benzamide]
22 | 100 to 1000 nM | NCc1cc(N2CCC(C(=O)Nc3ccccc3)CC2)ncn1 [Compound 1-103, 1-(6-(Aminomethyl)pyrimidin-4-yl)-N-phenylpiperidine-4-carboxamide]
23 | < 100 nM | Cn1c(CNC(=O)c2cccc(Oc3cc(CN)ncn3)c2)cc2ccccc21 [Compound 1-66, 3-((6-(Aminomethyl)pyrimidin-4-yl)oxy)-N-((1-methyl-1H-indol-2-yl)methyl)benzamide]
24 | < 100 nM | NCc1cc(OCc2cccc(C(=O)NCc3cc4cccnc4[nH]3)c2)ncn1 [Compound 1-87, N-((1H-pyrrolo[2,3-b]pyridin-2-yl)methyl)-3-(((6-(aminomethyl)pyrimidin-4-yl)oxy)methyl)benzamide]
25 | < 100 nM | NCc1cc(OCc2cccc(C(=O)NCc3ccnc(Cl)c3)c2)ncn1 [Compound 1-80, 3-(((6-(Aminomethyl)pyrimidin-4-yl)oxy)methyl)-N-((2-chloropyridin-4-yl)methyl)benzamide]
26 | < 100 nM | NCc1cc(OCc2cccc(C(=O)NCc3cc4ccccc4s3)c2)ncn1 [Compound 1-81, 3-(((6-(Aminomethyl)pyrimidin-4-yl)oxy)methyl)-N-(benzo[b]thiophen-2-ylmethyl)benzamide]
27 | < 100 nM | NCc1cc(OCc2cccc(C(=O)N3CCc4cccnc43)c2)ncn1 [Compound 1-92, (3-(((6-(Aminomethyl)pyrimidin-4-yl)oxy)methyl)phenyl)(2,3-dihydro-1H-pyrrolo[2,3-b]pyridin-1-yl)methanone]
28 | < 100 nM | NCc1cc(Oc2cccc(C(=O)NCc3nc4ccccc4o3)c2)ncn1 [Compound 1-68, 3-((6-(Aminomethyl)pyrimidin-4-yl)oxy)-N-(benzo[d]oxazol-2-ylmethyl)benzamide]
29 | < 100 nM | C#C[C@H](CC(=O)OC)NC(=O)c1cccc(Oc2cc(CN)ncn2)c1 [Compound 1-75, (S)-Methyl 3-(3-((6-(aminomethyl)pyrimidin-4-yl)oxy)benzamido)pent-4-ynoate]
30 | < 100 nM | NCc1cc(Oc2cccc(C(=O)NCc3cc4cccnc4[nH]3)c2)ncn1 [Compound 1-67, N-((1H-Pyrrolo[2,3-b]pyridin-2-yl)methyl)-3-((6-(aminomethyl)pyrimidin-4-yl)oxy)benzamide]
31 | < 100 nM | NCc1cc(OCc2cccc(C(=O)N3CCc4ccncc43)c2)ncn1 [Compound 1-93, (3-(((6-(Aminomethyl)pyrimidin-4-yl)oxy)methyl)phenyl)(2,3-dihydro-1H-pyrrolo[2,3-c]pyridin-1-yl)methanone]
32 | < 100 nM | NCc1cc(Oc2cccc(C(=O)NCc3cc4cc(F)ccc4[nH]3)c2)ncn1 [Compound 1-65, 3-((6-(Aminomethyl)pyrimidin-4-yl)oxy)-N-((5-fluoro-1H-indol-2-yl)methyl)benzamide]
33 | < 100 nM | NCc1cc(OCc2cccc(C(=O)NCc3cc4ccccc4[nH]3)c2)ncn1 [Compound 1-84, N-((1H-indol-2-yl)methyl)-3-(((6-(aminomethyl)pyrimidin-4-yl)oxy)methyl)benzamide]
34 | < 100 nM | NCc1cc(N2C(=O)CCc3c(OCc4ccccc4)cccc32)ncn1 [Compound 1-107, 1-(6-(Aminomethyl)pyrimidin-4-yl)-5-(benzyloxy)-3,4-dihydroquinolin-2(1H)-one]
